Read-outs that look alike come from different tables or passages of the source.
System: 'A4' creeping bentgrass
Conditions: for Root Diameter / Root Length / Root Surface Area / Root Volume / Root Viability: end of trial; for Root Viability: TTC method
From the text: Mature ‘A4’ creeping bentgrass plugs (4″ diameter) were harvested from field plots and transplanted into 6-inch pots filled with a USGA (United States Golf Association) specification sand mix (fine sand with 10% calcined clay). The bentgrass was maintained at 15 mm and fertilized at 0.2 lb N/1,000 ft^2 at transplanting and then 0.15 lb N/1,000 ft^2 biweekly thereafter. After about 2 months of non-stressed growth with optimum temperature, water, fertilizer, and light, the pots were placed in a controlled environment growth chamber at 95° F. day (12 h)/77° F. night (12 h), light intensity at 400 μmol m^−2 s^−1, 12 h photoperiod, and 65% RH. Water was replaced 5 times weekly at 55% of measured evapotranspiration (ET). […] Four treatments were tested with 4 replications for each treatment. The choline chloride solution at the […] listed below was applied to the canopy at 2 gallons/1,000 ft^2 and the same amount of water was applied to the control (Treatment #1).
The treatments were as follows: • 1. Fertilized control (0.15 lb. Nitrogen (N) per 1,000 ft^2 every 14 days from 28-8-18 with UMAXX® fertilizer (Harrell's LLC, Lakeland, Florida) • 2. Choline at 0.125 oz./1,000 ft^2 biweekly+0.15 lb. N/1,000 ft^2 biweekly • 3. Choline at 0.25 oz./1,000 ft^2 biweekly+0.15 lb. N/1,000 ft^2 biweekly • 4. Choline at 0.5 oz./1,000 ft^2 biweekly+0.15 lb. N/1,000 ft^2 biweekly The rate and source of fertilization for treatments #2, 3, and 4 were the same as treatment #1 (fertilized control).
The stress period of the trial lasted for 8 weeks, and there was a total of 4 treatment applications. The following measurements/data were taken at day 0, 14, 28, 42, and 56: • a. Visual leaf color was rated on a 1-9 scale, with 1 indicating brown color and 9 indicating dark green color. • b. Photochemical efficiency was measured with chlorophyll fluorometer (OS-50II, Opti-Sciences, Inc., Hudson, NH). Three readings were collected from each pot and the average was used for statistical analysis. • c. Leaf chlorophyll content and carotenoids were extracted in acetone and measured with a spectrophotometer after incubation for 72 h. • d. Leaf proline content was determined based on the method of Bates et al. 1973 and as described by Wu et al. 2017. • e. Leaf antioxidant superoxide dismutase (SOD) activity was determined based on the method as described by Zhang et al. 2015. • f. Root viability, root samples were collected at the end of the trial and TTC method was used to measure root viability as described by Zhang et al., 2017. • g. Root growth characteristics (root length, root surface area, root diameter, root length density) were determined using WinRHIZO technology. • h. Root biomass of the whole pot was measured at day 56. For leaf chlorophyll, carotenoids, proline, and superoxide dismutase (SOD) activity, fresh samples were collected every two weeks and frozen with liquid and stored at −80° C. before lab analysis.

[1] = 0.125 oz/1000 ft^2 biweekly, day 0
[2] = 0.125 oz/1000 ft^2 biweekly, day 14
[3] = 0.125 oz/1000 ft^2 biweekly, day 28
[4] = 0.125 oz/1000 ft^2 biweekly, day 42
[5] = 0.125 oz/1000 ft^2 biweekly, day 56
[6] = 0.25 oz/1000 ft^2 biweekly, day 0
[7] = 0.25 oz/1000 ft^2 biweekly, day 14
[8] = 0.25 oz/1000 ft^2 biweekly, day 28
[9] = 0.25 oz/1000 ft^2 biweekly, day 42
[10] = 0.25 oz/1000 ft^2 biweekly, day 56
[11] = 0.5 oz/1000 ft^2 biweekly, day 0
[12] = 0.5 oz/1000 ft^2 biweekly, day 14
[13] = 0.5 oz/1000 ft^2 biweekly, day 28
[14] = 0.5 oz/1000 ft^2 biweekly, day 42
[15] = 0.5 oz/1000 ft^2 biweekly, day 56

C[N+](C)(C)CCO.[Cl-] [Choline, choline chloride]
Carotenoids [1]: 1.05a mg/g Fresh Weight | Chlorophyll [1]: 3.04a mg/g Fresh Weight | Leaf color (1-9, 9 = dark green) [1]: 8.0a | Photochemical Efficiency (Fv/F^m) [1]: 0.726a | Proline content [1]: 64.1a μg/g FW | SOD activity [1]: 909.7a Unit/g FW | Carotenoids [2]: 0.88b mg/g Fresh Weight | Chlorophyll [2]: 2.40c mg/g Fresh Weight | Leaf color (1-9, 9 = dark green) [2]: 7.1ab | Photochemical Efficiency (Fv/F^m) [2]: 0.659a | Proline content [2]: 170.7a μg/g FW | SOD activity [2]: 906.4a Unit/g FW | Carotenoids [3]: 0.76c mg/g Fresh Weight | Chlorophyll [3]: 2.16b mg/g Fresh Weight | Leaf color (1-9, 9 = dark green) [3]: 6.0b | Photochemical Efficiency (Fv/F^m) [3]: 0.668a | Proline content [3]: 156.5a μg/g FW | SOD activity [3]: 865.7ab Unit/g FW | Carotenoids [4]: 0.69a mg/g Fresh Weight | Chlorophyll [4]: 1.74ab mg/g Fresh Weight | Leaf color (1-9, 9 = dark green) [4]: 6.3b | Photochemical Efficiency (Fv/F^m) [4]: 0.611ab | Proline content [4]: 156.1ab μg/g FW | SOD activity [4]: 752.3bc Unit/g FW | Carotenoids [5]: 0.67b mg/g Fresh Weight | Chlorophyll [5]: 1.72ab mg/g Fresh Weight | Leaf color (1-9, 9 = dark green) [5]: 6.0b | Photochemical Efficiency (Fv/F^m) [5]: 0.596ab | Proline content [5]: 139.7b μg/g FW | Root Biomass [5]: 1.269a g/pot | SOD activity [5]: 721.2bc Unit/g FW | Root Diameter (0.125 oz/1000 ft^2 biweekly): 0.161b mm | Root Length (0.125 oz/1000 ft^2 biweekly): 17.7ab cm/cm^3 | Root Surface Area (0.125 oz/1000 ft^2 biweekly): 0.90ab cm^2/cm^3 | Root Volume (0.125 oz/1000 ft^2 biweekly): 3.61ab cm^3/dm^3 | Root Viability (0.125 oz/1000 ft^2 biweekly): 0.78ab A490/g FW | Carotenoids [6]: 1.03a mg/g Fresh Weight | Chlorophyll [6]: 2.95a mg/g Fresh Weight | Leaf color (1-9, 9 = dark green) [6]: 8.0a | Photochemical Efficiency (Fv/F^m) [6]: 0.726a | Proline content [6]: 63.1a μg/g FW | SOD activity [6]: 870.8a Unit/g FW | Carotenoids [7]: 1.02a mg/g Fresh Weight | Chlorophyll [7]: 2.76a mg/g Fresh Weight | Leaf color (1-9, 9 = dark green) [7]: 7.4a | Photochemical Efficiency (Fv/F^m) [7]: 0.672a | Proline content [7]: 177.4a μg/g FW | SOD activity [7]: 930.7a Unit/g FW | Carotenoids [8]: 0.94a mg/g Fresh Weight | Chlorophyll [8]: 2.75a mg/g Fresh Weight | Leaf color (1-9, 9 = dark green) [8]: 6.6a | Photochemical Efficiency (Fv/F^m) [8]: 0.645a | Proline content [8]: 162.3a μg/g FW | SOD activity [8]: 885.1a Unit/g FW | Carotenoids [9]: 0.84a mg/g Fresh Weight | Chlorophyll [9]: 2.10ab mg/g Fresh Weight | Leaf color (1-9, 9 = dark green) [9]: 6.7a | Photochemical Efficiency (Fv/F^m) [9]: 0.648a | Proline content [9]: 169.5a μg/g FW | SOD activity [9]: 872.3a Unit/g FW | Carotenoids [10]: 0.84a mg/g Fresh Weight | Chlorophyll [10]: 1.99a mg/g Fresh Weight | Leaf color (1-9, 9 = dark green) [10]: 6.6a | Photochemical Efficiency (Fv/F^m) [10]: 0.615a | Proline content [10]: 267.1a μg/g FW | Root Biomass [10]: 1.273a g/pot | SOD activity [10]: 866.5a Unit/g FW | Root Diameter (0.25 oz/1000 ft^2 biweekly): 0.170ab mm | Root Length (0.25 oz/1000 ft^2 biweekly): 18.4a cm/cm^3 | Root Surface Area (0.25 oz/1000 ft^2 biweekly): 0.98a cm^2/cm^3 | Root Volume (0.25 oz/1000 ft^2 biweekly): 4.18a cm^3/dm^3 | Root Viability (0.25 oz/1000 ft^2 biweekly): 1.28a A490/g FW | Carotenoids [11]: 1.07a mg/g Fresh Weight | Chlorophyll [11]: 3.07a mg/g Fresh Weight | Leaf color (1-9, 9 = dark green) [11]: 8.0a | Photochemical Efficiency (Fv/F^m) [11]: 0.718a | Proline content [11]: 53.5a μg/g FW | SOD activity [11]: 878.3a Unit/g FW | Carotenoids [12]: 0.98ab mg/g Fresh Weight | Chlorophyll [12]: 2.67ab mg/g Fresh Weight | Leaf color (1-9, 9 = dark green) [12]: 7.4a | Photochemical Efficiency (Fv/F^m) [12]: 0.690a | Proline content [12]: 180.0a μg/g FW | SOD activity [12]: 911.1a Unit/g FW | Carotenoids [13]: 0.91ab mg/g Fresh Weight | Chlorophyll [13]: 2.54ab mg/g Fresh Weight | Leaf color (1-9, 9 = dark green) [13]: 6.8a | Photochemical Efficiency (Fv/F^m) [13]: 0.661a | Proline content [13]: 167.1a μg/g FW | SOD activity [13]: 900.7a Unit/g FW | Carotenoids [14]: 0.84a mg/g Fresh Weight | Chlorophyll [14]: 2.18a mg/g Fresh Weight | Leaf color (1-9, 9 = dark green) [14]: 6.9a | Photochemical Efficiency (Fv/F^m) [14]: 0.659a | Proline content [14]: 171.8a μg/g FW | SOD activity [14]: 836.4ab Unit/g FW | Carotenoids [15]: 0.83a mg/g Fresh Weight | Chlorophyll [15]: 2.01a mg/g Fresh Weight | Leaf color (1-9, 9 = dark green) [15]: 6.9a | Photochemical Efficiency (Fv/F^m) [15]: 0.610a | Proline content [15]: 278.0a μg/g FW | Root Biomass [15]: 1.270a g/pot | SOD activity [15]: 815.7ab Unit/g FW | Root Diameter (0.5 oz/1000 ft^2 biweekly): 0.176a mm | Root Length (0.5 oz/1000 ft^2 biweekly): 18.8a cm/cm^3 | Root Surface Area (0.5 oz/1000 ft^2 biweekly): 0.99a cm^2/cm^3 | Root Volume (0.5 oz/1000 ft^2 biweekly): 4.15a cm^3/dm^3 | Root Viability (0.5 oz/1000 ft^2 biweekly): 1.10a A490/g FW

Reference: patent US20250151724A1, “Liquid Soil Treatments Containing Choline” (Harrell's, LLC, priority 2023, published 2025)
